The target in this test is G6PD (Homo sapiens, UniProt P11413). Briefly: G6PD enzymatic activity by diaphorase-coupled assay.
Setting [1] is: Normalized in vitro IC50, Table 1A, diaphorase-coupled biochemical assay, normalization to an intraplate control.
[2] abbreviates: Normalized in vitro IC50, Table 1, diaphorase-coupled biochemical assay, normalization to an intraplate control.

Where two headings read alike, the source gives them in different places. Where only a bound is given, the exact number is not on record here.

Chain of G6PD (P11413 28-515): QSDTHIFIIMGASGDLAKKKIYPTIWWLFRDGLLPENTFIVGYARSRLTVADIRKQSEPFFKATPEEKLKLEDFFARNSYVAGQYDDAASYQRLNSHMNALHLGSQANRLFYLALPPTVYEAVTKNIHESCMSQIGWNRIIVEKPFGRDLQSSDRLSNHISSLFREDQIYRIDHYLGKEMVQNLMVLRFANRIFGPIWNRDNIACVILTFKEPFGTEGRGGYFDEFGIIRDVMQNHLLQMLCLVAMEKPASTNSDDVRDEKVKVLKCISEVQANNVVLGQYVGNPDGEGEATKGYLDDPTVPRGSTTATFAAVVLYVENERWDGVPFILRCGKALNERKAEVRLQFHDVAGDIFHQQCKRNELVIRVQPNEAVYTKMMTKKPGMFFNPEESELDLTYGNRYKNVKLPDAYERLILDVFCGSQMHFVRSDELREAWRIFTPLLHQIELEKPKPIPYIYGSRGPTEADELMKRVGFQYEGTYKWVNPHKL

As usually defined, the IC50 is the concentration that inhibits the measured activity by half. A low value points to higher potency. In turn, `Cc1ccc(Nc2ncc3c(n2)CCCCC3=O)cc1C#N` [Compound 0019] registered an IC50 of less than 1 µM. As for `CC(C)c1ccc(Nc2ncc3c(n2)CCCCC3=O)cc1` [Compound 0007], under setting [1], the IC50 was 1 to 1000 µM. In the case of `CCOc1cc(C#N)cc(Nc2ncc3c(n2)CCCCC3=O)c1` [Compound 0059], the IC50 was less than 1 µM.

In turn, `COCCOc1cc(C#N)cc(Nc2ncc3c(n2)CCCCC3=O)c1` [Compound 0125] gave an IC50 of less than 1 µM. The same measure, in the same setting: with `O=C1CCCCc2nc(Nc3ccc(-c4nnn[nH]4)cc3)ncc21` [Compound 0036] the figure was less than 1 µM; with `O=C1CCCCc2nc(Nc3ccc(F)c(Cl)c3)ncc21` [Compound 0017], less than 1 µM. Molecule `N#Cc1cc(Nc2cc3c(cn2)C(=O)CCCC3)cs1` [Compound 0066] displayed an IC50 of 1 to 1000 µM. Under setting [1], `COc1ccc(Nc2ncc3c(n2)CCCCC3=O)cc1` [Compound 0008] showed an IC50 of 1 to 1000 µM. As for `CC(C)Oc1cc(C#N)cc(Nc2ncc3c(n2)CCCCC3=O)c1` [Compound 0061], the IC50 was less than 1 µM. On the same count and under the same terms, with `CCOCCOc1cc(C#N)cc(Nc2ncc3c(n2)CCCCC3=O)c1` [Compound 0090] the figure was 1 to 1000 µM. On to `O=C1CCCc2nc(Nc3nc4ccccc4s3)ncc21` [KG-0211-0], for which the IC50 under setting [2] was more than 1000 µM. Regarding `N#Cc1cc(Nc2ncc3c(n2)CCCCC3=O)cc(OCc2ccc(F)cc2)c1` [Compound 0076], the IC50 is less than 1 µM.

`N#CC(C#N)=C1CCCCc2nc(Nc3csc(C#N)c3)ncc21` [Compound 0034] displayed an IC50 of less than 1 µM. Consider `CCCCOc1cc(C#N)cc(Nc2ncc3c(n2)CCCCC3=O)c1` [Compound 0089], for which the IC50 is 1 to 1000 µM. In the case of `N#Cc1cc(Nc2ncc3c(n2)CCCCC3=O)cc(OCC2CCOCC2)c1` [Compound 0124], the IC50 is less than 1 µM.

`N#Cc1cc(Nc2ncc3c(n2)CCCC(O)C3=O)cs1` (stereo not shown) [KG-0333-0] gave an IC50 of less than 1 µM. Molecule `N#Cc1scc(Nc2ncc3c(n2)CCCCC3=O)c1-n1cccc1` [Compound 0071] displayed an IC50 of less than 1 µM. For `CCc1ccc(Nc2ncc3c(n2)CCCCC3=O)cc1` [Compound 0006], the IC50 under setting [1] is 1 to 1000 µM.

Consider `CC(=O)Nc1ccc(Nc2ncc3c(n2)CCCCC3=O)cc1` [Compound 0013], for which the IC50 under setting [1] was more than 1000 µM. As to `N#Cc1cncc(Nc2ncc3c(n2)CCCC3=O)c1` [KG-0198-0], the IC50 lay in the range of 1 to 1000 µM.

In turn, `N#Cc1cc(Nc2ncc3c(n2)CCCCC3=O)cc(OCC2CCCCC2)c1` [Compound 0072] came in with an IC50 of 1 to 1000 µM.

With `N#Cc1cc(Nc2ncc3c(n2)CCCCC3=O)cc(OCC2CCCC2)c1` [Compound 0099], the IC50 lay in the range of 1 to 1000 µM. On to `N#Cc1cc(Nc2ncc3c(n2)CCCCC3=O)ccc1Cl` [Compound 0018], for which the IC50 lay within 1 to 1000 µM. For the molecule `Cc1cccc(Oc2ncc3c(n2)CCCC3=O)c1` [KG-0141-0], the IC50 was more than 1000 µM.

The molecule `N#Cc1cc(Nc2ncc3c(n2)CCCCC3=O)cc(OCc2ccsc2)c1` [Compound 0049] came in with an IC50 of less than 1 µM. Molecule `O=C1CCCCc2nc(Nc3cc(C(F)(F)F)cc(C(F)(F)F)c3)ncc21` [Compound 0014] came in with an IC50 of 1 to 1000 µM. For the molecule `N#CCc1ccc(Nc2ncc3c(n2)CCCCC3=O)cc1` [Compound 0026], the IC50 under setting [1] was in the range of 1 to 1000 µM. For `O=C1CCCc2nc(Nc3cccc(OCc4ccccc4)c3)ncc21` [KG-0252-0], the IC50 under setting [2] lay within 1 to 1000 µM. Take `CC1(C)OB(c2cccc(Nc3ncc4c(n3)CCCCC4=O)c2)OC1(C)C` [Compound 0023]: the IC50 lay within 1 to 1000 µM. Consider `N#Cc1cc(Nc2ncc3c(n2)CCCCC3=O)cc(OCc2c[nH]c3ccccc23)c1` [Compound 0081], for which the IC50 was more than 1000 µM.

Consider `N#Cc1cc(Nc2ncc3c(n2)CCCCC3=O)cc(OCC23C[C@H]4C[C@@H](C2)C[C@@H](C3)C4)c1` [Compound 0105], for which the IC50 is more than 1000 µM. On to `Cc1cccc(Nc2ccc3c(n2)CCCC3=O)c1` [KG-0052], for which the IC50 was more than 1000 µM. In turn, `O=C1CCCc2nc(Nc3cccc(C4(O)COC4)c3)ncc21` [KG-0242-0] displayed an IC50 under setting [2] of 1 to 1000 µM.

In turn, `N#Cc1cc(Nc2ncc3c(n2)C2CCC(C2)C3=O)cs1` (stereo not shown) [Compound 0040] registered an IC50 of 1 to 1000 µM. In the case of `N#Cc1cccc(Nc2ncc3c(n2)CCCCC3=O)c1` [KG-0184-0A], under setting [2], the IC50 is less than 1 µM. In turn, `N#Cc1cc(CS(=O)(=O)C(F)(F)F)cc(Nc2ncc3c(n2)CCCCC3=O)c1` [Compound 0163] yielded an IC50 of 1 to 1000 µM. For `O=C1CCCCc2nc(Nc3csc(-c4nnn[nH]4)c3)ncc21` [Compound 0033], the IC50 lay within 1 to 1000 µM. `N#Cc1cccc(Nc2ncc3c(n2)CCCC(Br)C3=O)c1` (stereo not shown) [KG-0334]: the concentration for half-maximal inhibition (IC50) is less than 1 µM. Molecule `N#Cc1cc(Nc2ncc3c(n2)CCCCC3=O)cc(OCc2ccc(Br)cc2)c1` [Compound 0073] came in with a half-inhibitory concentration (IC50) of 1 to 1000 µM. As to `CCCCc1cc(C#N)cc(Nc2ncc3c(n2)CCCCC3=O)c1` [Compound 0162], the IC50 is 1 to 1000 µM. Turning to `COc1cccc(Nc2ncc3c(n2)CCCC3=O)c1` [KG-0185-0], the 50% inhibitory concentration (IC50) under setting [2] was 1 to 1000 µM.

Turning to `N#Cc1cc(Nc2ncc3c(n2)CCCCC3=O)cc(OCc2ccccn2)c1` [Compound 0121], the IC50 is less than 1 µM. For the molecule `N#Cc1cc(Nc2ncc3c(n2)CCCCC3=O)cc(OCc2ccc3ccccc3c2)c1` [Compound 0080], the IC50 lay in the range of 1 to 1000 µM. The molecule `N#Cc1cc(Nc2ncc3c(n2)CCC(Br)C3=O)cs1` (stereo not shown) [KG-0316] registered an IC50 of less than 1 µM. Consider `COc1ccc(Oc2cc(C#N)cc(Nc3ncc4c(n3)CCCCC4=O)c2)cc1` [Compound 0086], for which the IC50 under setting [1] was in the range of 1 to 1000 µM. `N#Cc1cc(Nc2ncc3c(n2)CCCCC3=O)cc(OCC2CC2)c1` [Compound 0097] came in with an IC50 of less than 1 µM. In turn, `N#Cc1cc(Nc2ncc3c(n2)CCCCC3=O)cc(OCC2CCC2)c1` [Compound 0098] yielded an IC50 of 1 to 1000 µM. The molecule `COc1cc(Cl)cc(Nc2ncc3c(n2)CCCC3=O)c1` [KG-0256-0] gave an IC50 under setting [2] of less than 1 µM. In turn, `O=C1CCCc2nc(Nc3ccc4scnc4c3)ncc21` [KG-0227-0] had a half-inhibitory concentration (IC50) under setting [2] of 1 to 1000 µM. Molecule `O=C1c2cnc(Nc3cccc(Cl)c3)nc2CCCC1O` (stereo not shown) [KG-0332-0] returned an IC50 of 1 to 1000 µM.

For the molecule `O=C(O)c1cccc(Nc2ncc3c(n2)CCCC3=O)c1` [KG-0237-0], the IC50 under setting [2] was more than 1000 µM. `N#Cc1cc(Nc2ncc3c(n2)CCCCC3=O)cc(OC(=O)c2ccccc2)c1` [Compound 0085] came in with an IC50 of 1 to 1000 µM. `N#Cc1cc(Nc2ncc3c(n2)CCCCC3=O)cs1` [KG-0338]: the IC50 was less than 1 µM.

`N#Cc1cc(Nc2ncc3c(n2)CCCC/C3=N\O)cs1` [Compound 0053] yielded an IC50 of more than 1000 µM.

Take `O=C1CCCc2nc(Nc3cccc(C4CC4)c3)ncc21` [KG-0203-0]: the IC50 under setting [2] was in the range of 1 to 1000 µM. The molecule `O=C1CCCc2nc(Nc3ccc4ncsc4c3)ncc21` [KG-0224-0] gave an IC50 under setting [2] of 1 to 1000 µM.

In the case of `O=C1CCCCc2nc(Nc3ccc(C(F)(F)F)cc3)ncc21` [Compound 0010], under setting [1], the IC50 was 1 to 1000 µM.

For `CCCOc1cc(C#N)cc(Nc2ncc3c(n2)CCCCC3=O)c1` [Compound 0060], the IC50 is less than 1 µM. On the same count and under the same terms, for `N#Cc1cc(Nc2ncc3c(n2)CCCNC3=O)cs1` [Compound 0135] the value was 1 to 1000 µM; for `N#Cc1cc(Nc2ncc3c(n2)CCCCC3=O)cc(OCc2cccc(Cl)c2)c1` [Compound 0046], less than 1 µM. Consider `N#Cc1cc(Nc2ncc3c(n2)CCCCC3=O)cc(OCc2ccc(CO)cc2)c1` [Compound 0082], for which the IC50 was less than 1 µM. Still for that read-out and setting: with `N#C/C=C1\CCCCc2nc(Nc3csc(C#N)c3)ncc21` [Compound 0055] the figure was 1 to 1000 µM. With `N#Cc1cccc(Nc2ncc3c(n2)CCCS3(=O)=O)c1` [KG-0249-0], the IC50 is 1 to 1000 µM. `N#Cc1cc(Nc2ncc3c(n2)CCCC(C(F)(F)F)C3=O)cs1` (stereo not shown) [KG-0337-0] had an IC50 of less than 1 µM. Under setting [1], `O=C1CCCCc2nc(Nc3ccccc3)ncc21` [Compound 0021] came in with an IC50 of 1 to 1000 µM. The molecule `O=C1CCCc2nc(Nc3ccc4occc4c3)ncc21` [KG-0228-0] registered a concentration for half-maximal inhibition (IC50) under setting [2] of 1 to 1000 µM. Under setting [1], `O=C1CCCCc2nc(Nc3ccc([N+](=O)[O-])cc3)ncc21` [Compound 0011] came in with an IC50 of 1 to 1000 µM. For the molecule `N#Cc1cc(Nc2ncc3c(n2)CCCC/C3=N/O)cs1` [Compound 0054], the IC50 was more than 1000 µM. In turn, `Cc1cccc(Nc2ncc3c(n2)CCCC3=O)c1C` [KG-0060-0] showed a concentration for half-maximal inhibition (IC50) under setting [2] of more than 1000 µM. Molecule `CCCc1cc(C#N)cc(Nc2ncc3c(n2)CCCCC3=O)c1` [Compound 0161] came in with an IC50 of 1 to 1000 µM. As for `COc1ccccc1COc1cc(C#N)cc(Nc2ncc3c(n2)CCCCC3=O)c1` [Compound 0122], the IC50 is less than 1 µM.

`O=C1CCCc2nc(Nc3ccccc3)ncc21` [KG-0187-0] registered an IC50 under setting [2] of 1 to 1000 µM. Take `Cc1cccc(Nc2ccc3c(c2)CCNC3=O)c1` [KG-0057]: the IC50 was more than 1000 µM. Under setting [1], `COc1ccc(Nc2ncc3c(n2)CCCCC3=O)cc1C#N` [Compound 0020] registered an IC50 of less than 1 µM. The molecule `O=C1CCCc2nc(Nc3ccc4cc[nH]c4c3)ncc21` [KG-0166-0] yielded an IC50 under setting [2] of 1 to 1000 µM. Same read-out and setting: with `CC1CCc2nc(Nc3cccc(C#N)c3)ncc2C1=O` (stereo not shown) [KG-0205-0] the figure was less than 1 µM. As for `O=C1CCCc2nc(Nc3cccc(O)c3)ncc21` [KG-0186-0A], the IC50 under setting [2] is less than 1 µM.

With `N#Cc1cc(Nc2ncc3c(n2)CCCCC3=O)cc(OCc2ccccc2Cl)c1` [Compound 0047], the IC50 is less than 1 µM. Molecule `N#Cc1cc(Nc2ncc3c(n2)CCCc2cn[nH]c2-3)cs1` [Compound 0067] returned a 50% inhibitory concentration (IC50) of 1 to 1000 µM.

The molecule `O=C1CCCCc2nc(Nc3ccc([N+](=O)[O-])c(Cl)c3)ncc21` [Compound 0025] had an IC50 of 1 to 1000 µM.

For `O=C1CCCc2nc(Nc3cccc(-c4nnn[nH]4)c3)ncc21` [KG-0241-0], the IC50 under setting [2] is 1 to 1000 µM.

As to `N#Cc1cc(Nc2ncc3c(n2)CCCCC3=O)cc(OCc2ccncc2)c1` [Compound 0078], the 50% inhibitory concentration (IC50) was less than 1 µM. The same measure, in the same setting: for `CCCCCCCCCCCCCCOc1cc(C#N)cc(Nc2ncc3c(n2)CCCCC3=O)c1` [Compound 0092] the value was more than 1000 µM; for `N#Cc1cc(Nc2ncc3c(n2)CCCCC3=O)cc(OC(c2ccccc2)c2ccccc2)c1` [Compound 0100], 1 to 1000 µM. Molecule `COC(=O)c1ccc(COc2cc(C#N)cc(Nc3ncc4c(n3)CCCCC4=O)c2)cc1` [Compound 0096] gave an IC50 of more than 1000 µM.

(Values after US20230348401A1, “Inhibitors of Glucose-6-phosphate Dehydrogenase and Uses Thereof” (The Trustees of Princeton University, priority 2020, published 2023).)
